Several values for one entry are separate records, joined by “and”; a condition that tells them apart may be missing. Equal entries are not always repeated.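 Cells were grown in 96-well plates and exposed to each compound for 48 hours at five concentrations; endpoints were interpolated linearly between bracketing concentrations, or set to the highest concentration if not reached. GI50 is the concentration that inhibits growth by half. TGI marks complete inhibition of growth.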
Experiments:
Experiment in all cases: NCI tumour cell line growth inhibition, 48 h
IGROV1 ovarian = tested on: IGROV1 ovarian
SK-MEL-2 melanoma = tested on: SK-MEL-2 melanoma
UACC-257 melanoma = tested on: UACC-257 melanoma
SK-MEL-28 melanoma = tested on: SK-MEL-28 melanoma
K-562 leukemia = tested on: K-562 leukemia
HCT-116 colon = tested on: HCT-116 colon
SW-620 colon = tested on: SW-620 colon
SF-295 CNS = tested on: SF-295 CNS
OVCAR-3 ovarian = tested on: OVCAR-3 ovarian
ACHN renal = tested on: ACHN renal

Compound	TGI (IGROV1 ovarian)	GI50 (SK-MEL-2 melanoma)	TGI (SK-MEL-2 melanoma)	GI50 (UACC-257 melanoma)	TGI (UACC-257 melanoma)	GI50 (SK-MEL-28 melanoma) [µM]	TGI (SK-MEL-28 melanoma)	GI50 (K-562 leukemia)	TGI (K-562 leukemia)	GI50 (HCT-116 colon) [µM]	TGI (HCT-116 colon)	GI50 (SW-620 colon)	TGI (SW-620 colon)	GI50 (SF-295 CNS)	TGI (SF-295 CNS)	GI50 (OVCAR-3 ovarian) [µM]	TGI (OVCAR-3 ovarian)	GI50 (ACHN renal)	TGI (ACHN renal)	GI50 (IGROV1 ovarian) [nM]
OCc1ccc(-c2ccc(-c3ccc(CO)o3)o2)o1	> 31.2 µM	38.8 µM	97.1 µM	2.85 µM	11.9 µM	> 100	> 100 µM	> 100 µM	> 100 µM	> 88.9	> 100 µM	> 100000 nM	> 100 µM	23700 nM	> 100 µM	> 84.6	> 100 µM	35900 nM	> 100 µM	–
Oc1cn(-c2ccc(Cl)cc2)nc1-c1n[nH]c(=S)n1-c1ccc(F)cc1	24.1 µM	34 µM	> 100 µM	24.2 µM	77.4 µM	20.4	> 100 µM	12.6 µM	> 100 µM	11.6	25.5 µM	22800 nM	78.3 µM	14800 nM	66.9 µM	22	> 100 µM	28800 nM	> 100 µM	7120
Cc1ccc(S(=O)(=O)Nc2ccccc2C(C)(C)C)cc1	> 100 µM	–	60.2 µM	–	35.4 µM	–	43.2 µM	–	50.1 µM	–	29.1 µM	–	> 100 µM	–	32 µM	–	40 µM	–	> 100 µM	–
COC(=O)c1ccc(NC(N)=NCCC(C)(C)c2ccc(C(F)(F)F)cc2)nc1	3.82 µM	3.22 µM	10.5 µM	2.03 µM	4.34 µM	1.64	3.23 µM	1.3 µM	3.72 µM	1.6	3.3 µM	2030 nM	4.19 µM	1630 nM	3.51 µM	1.78	4.08 µM	1910 nM	4.85 µM	1770
CNC(=O)OCc1nc(SSc2nc(COC(=O)NC)c(COC(=O)NC)n2C)n(C)c1COC(=O)NC	> 100 µM	–	> 100 µM	–	> 100 µM	–	> 100 µM	–	> 100 µM	–	> 100 µM	–	> 100 µM	–	> 100 µM	–	> 100 µM	–	> 100 µM	–
NC1=NC(c2ccccc2Cl)c2c(n[nH]c2N)N1 (centres undefined)	> 100 µM	65.3 µM	> 100 µM	94.6 µM	> 100 µM	42.5	> 100 µM	4.52 µM	> 100 µM	7.77	> 100 µM	18900 nM	> 100 µM	16700 nM	> 100 µM	32.1	> 100 µM	34600 nM	> 100 µM	9480
CCN(CC)CCNc1n[n+]([O-])c2cc([N+](=O)[O-])ccc2[n+]1[O-]	1.83 µM and 0.999 µM and 0.897 µM	1.39 µM and 0.639 µM and 0.575 µM	3 µM and 2.02 µM and 2.88 µM	1.69 µM and 0.825 µM and 1.07 µM	4.14 µM and 3.08 µM and 2.43 µM	–	22.4 µM and 22.8 µM and 14.5 µM	0.296 µM and 0.199 µM and 0.124 µM	1.23 µM and 1.28 µM and 0.926 µM	–	2.79 µM and 2.39 µM and 2.3 µM	737 nM and 304 nM and 238 nM	3.14 µM and 2.45 µM and 2.33 µM	253 nM and 447 nM and 186 nM	1.95 µM and 3.08 µM and 2.64 µM	–	3.15 µM and 3.02 µM and 3.73 µM	401 nM and 212 nM and 187 nM	3.93 µM and 2.06 µM and 1.92 µM	–
Cc1ccc2ccc3c4ccccc4ccc3c2c1	94.8 µM	19 µM	41.8 µM	27.1 µM	83.4 µM	39.4	> 100 µM	34.7 µM	> 100 µM	31.2	> 100 µM	25900 nM	> 100 µM	–	–	25.5	67.6 µM	31900 nM	> 100 µM	20000
Cc1ccc(C(=O)Nc2ccc(Oc3cc4cnn(C)c4cc3-c3cn[nH]c3)c(F)c2)c(=O)n1-c1ccc(F)cc1	> 100 µM	18.1 µM	> 100 µM	6.8 µM	> 100 µM	3.54	> 100 µM	5.75 µM	> 100 µM	6.31	> 100 µM	> 88900 nM	> 100 µM	85.6 nM	> 100 µM	> 100	> 100 µM	2900 nM	> 100 µM	> 100000
O=C(CI)NC(=O)NC(=O)NCc1ccccc1	6.83 µM	7.5 µM	21.6 µM	11.5 µM	23.9 µM	2.96	11.3 µM	1.16 µM	4.05 µM	3.39	12.6 µM	1770 nM	3.78 µM	14100 nM	31.9 µM	1.82	3.37 µM	1950 nM	3.76 µM	2560
Nc1c(C(=O)Nc2ccccc2)sc2nc3c(cc12)C(=O)CCC3	> 100 µM	0.35 µM	–	0.57 µM	> 100 µM	0.71	> 100 µM	0.287 µM	> 100 µM	0.512	> 100 µM	333 nM	> 100 µM	435 nM	> 100 µM	0.264	1.22 µM	948 nM	> 100 µM	1010
O=c1[nH]c(=S)[nH]c(O)c1/C=C1\C=Nc2ccccc21	5.55 µM	19.5 µM	59 µM	14.2 µM	53.6 µM	6.69	48.3 µM	8.04 µM	> 100 µM	2.49	10.1 µM	1830 nM	3.78 µM	1810 nM	6.84 µM	1.44	3.13 µM	11400 nM	24.3 µM	1020
CN(C)C1C(=O)C(C(N)=O)=C(O)C2(O)C(=O)C3=C(O)c4c(O)cccc4C(C)(O)C3CC12.[Cl][Sb]([Cl])[Cl] (centres undefined)	8.5 µM	2.99 µM	8.04 µM	3.12 µM	11.8 µM	2.81	8.57 µM	3.26 µM	11.2 µM	3.33	12.2 µM	4010 nM	16.5 µM	–	–	3.62	12.4 µM	4750 nM	18.7 µM	2960
N#CC(C(=O)Nc1ccccc1)C1=C(Cl)C(=O)c2ccccc2C1=O (centres undefined)	34.8 µM	–	32.7 µM	–	12.8 µM	–	32.1 µM	–	52.5 µM	–	27.3 µM	–	50 µM	–	36.5 µM	–	34.5 µM	–	–	–

Source: PubChem BioAssay (NCI)
